Tests used:
[1] = Fluorescence stability (decomposition) in aqueous solution; type: physicochemical; settings: PBS with 1% DMSO, 37° C., 48 h, from 100%
Procedure: (FIG. 2B) 5TGM1 cells were treated with DMSO or with 20 μM 2, 4, 3, or 7 dissolved in DMSO for 3 days and subjected to XTT assays. Percentages of growth were determined by comparing treated groups with control groups (DMSO). Each data point derived from four independent groups receiving exactly the same treatment was plotted as mean±SD. Results are representative of three independent experiments. […] The values of I/I0 were plotted as a function of time and shown in the inset. I0 was the initial fluorescence intensity of 4 at 0 h. […] The values of I/I0 were plotted as a function of time and shown in the inset. I0 was the initial fluorescence intensity of 5 at 0 h. […] (FIG. 2G) The decomposition rates of 7 and 8 were plotted as a function of time in RPMI media incubated at 37° C. Aliquots were analyzed by HPLC and the peaks integrated.
FIGS. 5A-5J illustrate the finding that installation of a boronate cage cleavable by H2O2 stabilizes the 1,3-dioxane acetal protective group of D-F07 to allow for temporal inhibition of XBP-1s upon contact with H2O2. (FIG. 5A) A scheme showing that installation of a boronate-caged group stabilizes the 1,3-dioxane acetal protective group to allow for H2O2-mediated release of intact D-F07. (FIG. 5B) The fluorescence of BC-D-F07a (2.5 μM in the DMSO/PBS solution (v/v=1:99), Ex=360 nm) increases upon incubation with 0 to 200 μM hydrogen peroxide at room temperature for 1 h. (FIG. 5C) The fluorescence of BC-D-F07b (2.5 μM in the DMSO/PBS solution (v/v=1:99), Ex=360 nm) increases upon incubation with 0 to 2 mM hydrogen peroxide at 37° C. for 1 h. […] I0 was the initial fluorescence intensity of D-F07, BC-D-F07a or BC-D-F07b at 0 h. (FIG. 5E) The levels of hydrogen peroxide produced by 5TGM1, 72-h LPS-stimulated primary CLL, MEC2, and WaC3 cells were measured by Amplex Red with or without the addition of extracellular catalase (500 U/mL). (FIG. 5F) 5TGM1 cells were treated with BC-D-F07a at increasing concentrations for 24 h, lysed, and analyzed for the expression of indicated proteins by immunoblots. (FIG. 5G) CD5+ CLL cells purified from spleens of Eμ-TCL1 mice were stimulated with […], subsequently treated with BC-D-F07a at 20 μM for 16 h, and then incubated with hydrogen peroxide at indicated concentrations for another 4 h. Cells were lysed and analyzed for the expression of indicated proteins by immunoblots. […] Cells were lysed and analyzed for the expression of indicated proteins by immunoblots. […] Percentages of growth were determined by comparing treated groups with control groups (DMSO). […]
UV-vis and fluorescence spectra were carried out on a BioTek SYNERGY™ NEO2 instrument (96 well plate).

[2] = test system: XBP-1s expression, CD5+ CLL cells from Eμ-TCL1 mice; settings: cited from earlier work
MEC2 cells = settings: cited from earlier work
CLL = settings: mouse, in vivo; cited from earlier work

fluorescence intensity remaining (decomposition) [1]: 5.1%
SMILES: O=c1oc2c(C3OCCCO3)c(O)ccc2c2c1CNCC2 [Compound 4, 7-(1,3-dioxan-2-yl)-8-hydroxy-1,2,3,4-tetrahydro-5H-chromeno[3,4-c]pyridin-5-one]
expression of XBP-1s in CLL cells [2]: can inhibit the expression of XBP-1s in CLL cells
sensitivity of MEC2 cells (MEC2 cells): less sensitive
growth of CLL (CLL): retard the growth of CLL

Reference: patent publication US11833137B2, “Substituted chromenones, IRE1 inhibitors, and methods of using same” (The Wistar Institute, priority 2018, dated 2023)
